# Results published in article PMC11904948, “Peptide‐Drug Conjugate for Therapeutic Reprogramming of Tumor‐Associated Macrophages in Breast Cancer” (Advanced Science, 2025).
# Peptide text beside a SMILES is read from it. * marks the point of attachment. 5FAM = O=C1OC2(c3ccc(O)cc3Oc3cc(O)ccc32)c2ccc(C(=O)*)cc21; Ahx = NCCCCCC(=O)O
# Experiments:
# [1] = general statement, no reference given; cited from earlier work
# Excerpt: Verteporfin (V), is a photosensitizer and inhibitor of the activation of YAP.^[ [41] ^] […] Verteporfin, in its liposomal formulation Visudyne, is an approved drug for certain ophthalmological indications. In clinical trials for cancer therapy, Verteporfin is mostly used for photodynamic therapy (clinical trial identifiers: NCT03067051, NCT03033225, NCT04590664).
# [2] = set-up: method as in PMID 36632235; settings: cited from earlier work
# [3] = set-up: method as in PMID 39575977; settings: cited from earlier work
# CD206 = settings: cited from earlier work
# Excerpt: Targeting CD206 is also promising for diagnostic purposes, as an increased number of CD206^+ cells in lymph nodes correlates with relapse onset in some cancers.^[ [6] ^] Most synthetic compounds designed to target CD206 utilize mannose as the recognition moiety.
# [4] = Liver accumulation in the biodistribution study; type: in vivo, Balb/c mice; settings: i.v., i.p. and oral, 30 nmol, 24 h circulation, immunostaining, n = 3 mice
# Protocol: (§1) We subsequently determined the blood half‐life of FAM‐MACTIDE using i.v. and i.p. administration (Figure S1, Supporting Information).
# (§2) When tumors reached ≈100 mm^3, 30 nmol of FAM‐MACTIDE or FAM‐mUNO was injected i.p., i.v. or through oral gavage and circulated for 24 h. […] Blocks were cryosectioned at 10 µm thickness on Superfrost+ slides (ThermoFisher Scientific, catalog no. J1800AMNZ) and stored at −20 °C or used instantly. Immunofluorescence staining was performed as described previously.^[ [5] ^] […] Slides were counterstained using 4,6‐diamidino‐2‐phenylindole (DAPI, 5 µg mL^−1 in PBS, Sigma–Aldrich, catalog no. D9542‐5MG). […] The colocalization analysis was performed using the “Coloc2” plugin in the Fiji program using Mandler's tM2 index. Values were obtained from at least three individual images per mouse per group and their average values were plotted. The FAM mean signal per CD206^+ cell analysis was measured using Fiji, taking the mean FAM signal, and dividing it by the number of CD206^+ cells. Average values were obtained from four images per mouse for n = 3 mice.
# [5] = Blood half-life by plasma fluorescence; type: in vivo, mice; settings: i.v. and i.p., 30 nmoles, plasma fluorescence in FAM channel, n = 3; compared with FAM-mUNO values of ref 5
# Excerpt: We subsequently determined the blood half‐life of FAM‐MACTIDE using i.v. and i.p. administration (Figure S1, Supporting Information). […] Importantly, we observed low liver accumulation with these administration routes for both peptides (Figure S2, Supporting Information).
# Figure S1.: Pharmacokinetics of i.p. and i.v. administered FAM-MACTIDE (30 nmoles) analyzed by detecting plasma fluorescence in the FAM channel at different timepoints (n=3).
# [6] = Peptide stability in 4T1 tumor lysate (LC-MS); type: in vitro ADME; settings: lysate of 4T1 orthotopic TNBC tumors (mouse), 30 µM peptide, 37 °C, aliquots 0, 10, 30, 60, 180, 1440 min
# Protocol: Figure 3 MACTIDE has higher affinity and proteolytic stability than mUNO. A) QCM experiment of MACTIDE, mUNO, and control peptides at a final concentration of 10 µM in PBS on multilayers of PAH/CD206 or control multilayers of PAH/BSA. The black arrow indicates when the peptides were added, blue and red arrows indicate when the washing step with PBS started. B) Integrity of FAM‐MACTIDE and FAM‐mUNO measured by LC‐MS at different time points after incubation of peptides with lysate derived from a 4T1 tumor.
# We next evaluated the stability of fluorescein (FAM)‐MACTIDE against proteases from breast tumors. To this end, we incubated both FAM‐MACTIDE and FAM‐mUNO with a tumor lysate obtained from 4T1 orthotopic TNBC tumors using different timepoints and evaluated the integrity of the peptide using liquid chromatography‐mass spectrometry (LC‐MS). We observed that the half‐life of FAM‐MACTIDE in this tumor lysate increased 5‐fold with respect to FAM‐mUNO (Figure 3B).
# For peptide stability measurements, 200 µL of freshly prepared tumor lysate was mixed with 50 µL of PBS (as control), 30 µM of FAM‐mUNO, or 30 µM of FAM‐MACTIDE and incubated at 37 °C. 40 µL aliquots were taken at 0, 10, 30, 60, 180 and 1440 min. 80 µL of methanol was added to each aliquot and it was immediately stored at −80 °C until analysis later on the same or the following day. […]
# CD206^+ TAM = assay: In vivo homing to CD206+ TAM in orthotopic 4T1 tumor-bearing mice; set-up: species or system Balb/c mice; settings: 30 nmol, 24 h circulation
# Protocol: as §1
# Thirty nmol of FAM‐MACTIDE or FAM‐mUNO were administered i.v. (A), i.p. (B), or orally (C) and left to circulate for 24 h. After 24 h, mice were sacrificed, and the organs were collected, fixed, cryoprotected, sectioned, and immunostained for FAM (shown in green) and CD206 (shown in red). The CD206/FAM colocalization indices were calculated from representative images from n = 3 tumors, using Fiji (Mandler's tM2 index) and the signal intensity per CD206^+ TAM (i.p. administration) was quantified using ImageJ (B). Scale bars = 100 µm. ^* p ≤ 0.05, ^** p ≤ 0.01 (Anova one‐way fisher LSD).
# as §2
molecule,measurement,setting,value
Verteporfin,solubility in water,[1],insoluble in water
same,cardiotoxicity in vivo,[2],cardiotoxicity
same,cell specificity of free Verteporfin,[3],not cell‐specific
OC[C@H]1OC(O)[C@@H](O)[C@@H](O)[C@@H]1O (stereo partly drawn) [mannose],affinity of mannose (CD206 recognition moiety),CD206,millimolar range
"C[C@H](NC(=O)CNC(=O)[C@@H]1CCCN1C(=O)[C@H](CO)NC(=O)[C@H](CS)NC(=O)CCCCCNC(=O)c1ccc2c(c1)C(=O)OC21c2ccc(O)cc2Oc2cc(O)ccc21)C(=O)N[C@@H](CCCCN)C(=O)O [FAM‐mUNO, reference compound] ({5FAM-Ahx}-CSPGAK-OH)",liver accumulation,[4],does not accumulate in the liver
"FAM‐Ahx‐G(CTKSIPPIC)SPGAK‐OH (disulfide) [FAM‐MACTIDE, carboxyfluorescein-labelled MACTIDE]",blood half‐life,[5],equal to those obtained previously for FAM‐mUNO
same,"half‐life in tumor lysate, fold increase with respect to FAM‐mUNO",[6],5 fold
same,liver accumulation,[4],does not accumulate in the liver
same,CD206/FAM colocalization,"CD206^+ TAM; i.p., 4T1 tumors, Fiji tM2 index, n = 3 tumors",80%
same,"FAM intensity per CD206^+ TAM, fold higher than FAM‐mUNO","CD206^+ TAM; i.p., 4T1 tumors, ImageJ, n = 3 mice",10 fold
same,"CD206^+ TAM targeting, intravenous","CD206^+ TAM; i.v., immunostaining of 4T1 tumor sections for FAM and CD206",showed CD206^+ TAM targeting
same,"CD206^+ TAM targeting, oral","CD206^+ TAM; oral gavage, immunostaining of 4T1 tumor sections",targeted CD206^+ TAM
